Here are results for one compound from patent US20220008325A1, “WHITE PINE BARK EXTRACT FOR DECREASING ENDOTHELIN-1 SECRETION, STEM CELL FACTOR SYNTHESIS AND PROTEIN CARBONYLATION” (International Flavors & Fragrances Inc., priority 2018, published 2022).

This assay has as its system pigmented reconstructed human epidermis (RHE). The experiment in a line: Melanin synthesis in ex vivo pigmented reconstructed human epidermis (Fontana-Masson staining). The assay is classed as cell-based. The settings on record: pigmented RHE phototype IV, topical formulation (2% extract or 1% kojic acid), 3 days, 2 applications per day, vs placebo formula. How it is done: Non-pigmented reconstructed human epidermis (RHE) and pigmented RHE phototype IV were prepared by seeding human melanocytes and keratinocytes in an incubation chamber placed on the epidermal side of a dead dermis at 4×10^5 cells per cm^2, at a 1:20 melanocyte:keratinocyte ratio. After 24 hours, the incubation chamber was removed and the dead dermis was submerged for 3 days. The dead dermis was moved to the air-liquid interface for 8 days prior to treatment. After 8 days of exposure to the air-liquid interface, the pigmented RHE and non-pigmented RHE were contacted with Pinus strobus bark extract, placebo, negative control (no treatment), or positive control (kojic acid). This involved topical application of each formulation for 3 days, 2 applications per day (see FIG. 5). After 3 days, pigmented RHE was incubated for 3 days in the presence of a 1:1 mixture of fresh media and conditioned media from the non-pigmented RHE. The formulations included Heliogel™ (sodium acrylates copolymer, hydrogenated polyisobutene, phospholipids, polyglyceryl-10 stearate, sunflower seed oil; Lucas Meyer Cosmetics), Saboderm TCC (Caprylic/Capric Triglyceride; SABO, S.p.A), and Dekaben C (phenoxyethanol, methylparaben, ethylparaben, butylparaben, isobutylparaben, propylparaben; Jan Dekker BV) in the amounts listed in Table 1. Pigmentation was evaluated by Fontana-Masson staining. […]

As to `O=c1cc(CO)occ1O` [Kojic acid], the “decrease in melanin synthesis” value is 8.1%.
